{
  "source": "patent US20120095100A1",
  "about": "“USE OF A COMBINATION OF D-ASPARTIC AND L-ASPARTIC ACIDS OR SALTS THEREOF FOR THE TREATMENT OF MALE INFERTILITY” (MERCK SERONO S.P.A., priority 2009, published 2012)",
  "key": {"[1]": {"test_system": "luteinizing hormone (LH), growth hormone, prolactin (PRL) and testosterone in blood", "conditions": "rat, orally administered; cited from earlier work"}, "[2]": {"test_system": "LH and testosterone values and spermatozoon number and motility", "conditions": "man, daily one or two 3 g doses, at least 30 days; cited from earlier work"}, "[3]": {"test_system": "spermatozoa in human seminal liquid", "test": "Number and quick progressive motility of spermatozoa in human seminal liquid after oral D-aspartic/L-aspartic acid", "assay_type": "in vivo", "conditions": "men", "source_text": "(§1) Like ingestion procedure, the D-aspartic and L-aspartic acid mixture preferably was dispersed in a half filled glass containing water or fresh or stored fruit juice (orange, apple, pear, etc.), then stirred and ingested.\n(§2) Before the start of the study and after 20 days of treatment in the morning from each subject blood has been collected and the concentration of LH (luteinizing hormone) and testosterone has been determined in serum obtained from said blood. Moreover, from every subject also the seminal liquid has been collected for which quick progressive motility together with total number spermatozoa/ml of sperm has been determined.\n(§3) The seminal liquid has been collected by masturbation after 3-5 abstinence days. The number of the spermatozoa and progressive quick motility have been determined according to (World Health Organization) WHO guidelines using a Makler Chamber for the count (Sefi Medtstl Instrument, Haifa, Israel) and in the same place the progressive quick motility has been determined."}, "[4]": {"test_system": "LH (luteinizing hormone) in human serum", "test": "LH in human serum after oral D-aspartic/L-aspartic acid", "assay_type": "in vivo", "conditions": "men, L-aspartic acid alone", "source_text": "as §1, §2"}, "[5]": {"test_system": "testosterone in human serum", "test": "Testosterone in human serum after oral D-aspartic/L-aspartic acid", "assay_type": "in vivo", "conditions": "men, L-aspartic acid alone", "source_text": "as §1, §2"}, "[6]": {"test_system": "spermatozoa in rabbit seminal liquid", "test": "Effect of feed containing D-aspartic/L-aspartic acid on number and motility of spermatozoa in rabbit seminal liquid", "assay_type": "in vivo", "conditions": "rabbits, about 1.14 g/day total in feed, 20 days", "source_text": "The study has been carried out on two groups of rabbits. […] A same age second group of 10 rabbits representing a control group (or placebo) was fed eat for 20 days with same type food as above prepared, but without the addition of D-aspartic and L-aspartic acids mixture. The experiments have been carried out in a rabbit breeding farm (“Potenza Breeders' Association”, Potenza, Italy). Before the start and at the end of the experiment from each rabbit a sperm sample has been collected by stimulation with an artificial vagina (see paper: “G. Macchia et al., DL-aspartic acid administration improve semen quality in rabbit bucks, published on “Animal Reproduction Science, 118, 337-343, 2010) and the total number of spermatozoa/ml of ejaculate and motility thereof have been determined.\n(§4) The number of the spermatozoa and progressive quick motility are determined according to (World Health Organization) WHO guidelines using a Makler Chamber for the count (Sefi Medtstl Instrument, Haifa, Israel) and in the same place the progressive quick motility has been determined.\nAlso this study has been carried out on two groups of same age and weight rabbits as used for previous study. […] Also in this case seminal liquid has been collected before and after the experiment and then examined for spermatozoon number and motility thereof.\nAlso this study carried out on rabbits has been carried out in the same way as previous ones. […] Also in this case total amount of D-Asp+L-Asp ingested daily by rabbits was about 1.140 g."}, "[7]": {"test_system": "spermatozoa in rabbit seminal liquid", "test": "Effect of sodium D-aspartate and sodium D-/L-aspartate mixtures on number and motility of spermatozoa in rabbit seminal liquid", "assay_type": "in vivo", "conditions": "rabbits, 0.25 g/day total mixed with food, 20 days", "source_text": "The study has been carried out on two groups of rabbits (10 rabbits for each group) in order to test the effect of sodium D-aspartate and of the sodium D-aspartate in combination with a determined amount of sodium L-aspartate on the quality of seminal liquid, i.e. on number of spermatozoa/ml and on the progressive quick motility thereof.\nThe experiment involved the ingestion by a group of 10 male adult rabbits, 6 month old, of an amount of sodium D-aspartate corresponding to 0.250 g daily ([…] of body weight) over 20 days. Practically, sodium D-aspartate was mixed with food in such amount that the food daily ingested by the rabbit contained 0.250 g of sodium D-aspartate. In the same way, in a second experiment carried out on another group of 10 same age male adult rabbits, a mixture consisting of 0.2 g of sodium D-aspartate and 0,05 g of sodium L-aspartate (80% D-Asp: 20% L-Asp) was administered. Before the start of the experiment and at the end of drug ingestion lasting 20 days, from every rabbit a sperm sample obtained by stimulation using an artificial vagina has been collected and the total number of spermatozoa/ml of ejaculate and motility thereof have been determined.\nas §4, with “determined. The rabbit semen was 1:10 diluted in an iso-osmotic solution due to excessive concentration.” for “determined.”\nThe study involved the administration of a mixture consisting of 0.125 g of sodium D-aspartate+0,125 g of sodium L-aspartate (D-Asp 50%: L-Asp 50%) to a group of 10 rabbits according to procedure of Example 2. […] In this case the production of the number of spermatozoa was increased by 25% and motility by 55% compared to controls showing that also in this case an improvement compared to D-aspartate alone was obtained but it was lower than mixture consisting of 80% D-aspartate and 20% L-aspartate."}, "[8]": {"test_system": "testosterone in human serum", "conditions": "men 25-40 years, oral 3.12 g/day total, 30 days", "text": "(§5) The study involves the oral ingestion (after breakfast or main meal) by a group of 10 25-40 year old people of a daily dose consisting of 3.12 g of sodium D-aspartate (19,2 μmole of sodium D-aspartate; 0.27 μmol/kg of body weight for a 70 kg person) over 30 days. Another group of 10 25-40 year old people (after breakfast or main meal) ingested a daily dose of a mixture consisting of 2.49 g of sodium D-aspartate and 0.63 g of sodium L-aspartate (80% sodium D-aspartate and 20% sodium L-aspartate) for the same period.\n(§6) LH and testosterone hormonal assays have been carried out using specific commercial kits for clinical chemical use."}, "[9]": {"test_system": "spermatozoa in human seminal liquid", "test": "Number and quality of spermatozoa in human seminal liquid after oral sodium D-aspartate or sodium D-/L-aspartate mixtures", "assay_type": "in vivo", "conditions": "men 25-40 years, oral 3.12 g/day total, 30 days", "source_text": "as §3, with “Seminal liquid has” for “The seminal liquid has”, “been collected through masturbation after” for “been collected by masturbation after”, “quick motility thereof have been” for “quick motility have been”\nIt is to be pointed out that this study has been carried out on selected subjects having a number of spermatozoa in seminal liquid from 15.000.000 to 20.000.000/ml, that is minimum threshold values within normal range. […] In this case therefore the action of D-aspartate stimulates their maturation to vital spermatozoa."}, "[10]": {"test_system": "LH (luteinizing hormone) in human serum", "conditions": "men 25-40 years, 30 days", "text": "as §5, §6"}},
  "note": "“And” between values parts separate entries of the source, which are not always exact repeats. Identical values can stand only once. Like-named read-outs stand apart in the source and are kept apart here. Marks after values point to notes of the source that are not given here.",
  "data": [
    {"smiles": "N[C@H](CC(=O)O)C(=O)O", "note": "[D-aspartic acid]", "values": [
      {"measurement": "Blood LH, growth hormone, prolactin and testosterone", "setting": "[1]", "value": "temporary increase"},
      {"measurement": "LH and testosterone values and spermatozoon number and motility", "setting": "[2]", "value": "induced an increase"}
    ]},
    {"smiles": "N[C@@H](CC(=O)O)C(=O)O", "note": "[L-aspartic acid]", "values": [
      {"measurement": "Quick progressive motility of spermatozoa after treatment, individual subjects", "setting": "[3]; % progressive quick of 100 observed spermatozoa, one line per subject 1°-10°", "value": "25% and 19% and 35% (2×) and 18% and 40% and 45% and 22% and 27% and 39%"},
      {"measurement": "Average % increment of quick progressive motility", "setting": "[3]; average ± SD of 10 subjects", "value": "+35.6% ± 9.05"},
      {"measurement": "% increment of number of spermatozoa, individual subjects", "setting": "[3]; one line per subject 1°-10°", "value": "26% and 40% and 20% and 33% and 36% and 15% and 13% (2×) and 19% and 12%"},
      {"measurement": "% increment of quick progressive motility, individual subjects", "setting": "[3]; one line per subject 1°-10°", "value": "38% and 26% and 45% and 50% and 25% (2×) and 28% and 37% and 42% and 40%"},
      {"measurement": "Number of spermatozoa in seminal liquid after treatment, individual subjects", "setting": "[3]; one line per subject 1°-10° (20 days for the 80/20 mixture)", "value": "8 × 10^6 and 35 × 10^6 and 6 × 10^6 and 20 × 10^6 and 41 × 10^6 and 3 × 10^6 and 34 × 10^6 and 51 × 10^6 and 25 × 10^6 and 18 × 10^6"},
      {"measurement": "LH haematic hormone before and after therapy", "setting": "[4]", "value": "unaltered"},
      {"measurement": "Testosterone haematic hormone before and after therapy", "setting": "[5]", "value": "unaltered"},
      {"measurement": "Immobile after treatment (on base 100)", "setting": "[6]", "value": 29, "unit": "%"},
      {"measurement": "Quick motility after treatment (on base 100)", "setting": "[6]", "value": 41, "unit": "%"},
      {"measurement": "Slow motility after treatment (on base 100)", "setting": "[6]", "value": 30, "unit": "%"}
    ]},
    {"smiles": "N[C@H](CC(=O)[O-])C(=O)[O-].[Na+].[Na+]", "note": "[100% D-Aspartate, sodium D-aspartate]", "values": [
      {"measurement": "% increment of number of spermatozoa vs before the treatment", "setting": "[7]", "value": 19.3, "unit": "%"},
      {"measurement": "% increment of quick progressive spermatozoa vs before the treatment", "setting": "[7]", "value": 37, "unit": "%"},
      {"measurement": "Immobile spermatozoa after ingestion (on 100 base)", "setting": "[7]", "value": 18, "unit": "%*"},
      {"measurement": "Quick progressive spermatozoa after ingestion (on 100 base)", "setting": "[7]", "value": 55, "unit": "%*"},
      {"measurement": "Slow spermatozoa after ingestion (on 100 base)", "setting": "[7]", "value": 27, "unit": "%*"},
      {"measurement": "% increment of quick progressive spermatozoa vs before the treatment", "setting": "[7]; listed as D-aspartate", "value": 37, "unit": "%"},
      {"measurement": "Quick progressive spermatozoa after ingestion (on 100 base)", "setting": "[7]; listed as D-aspartate", "value": 55, "unit": "%"},
      {"measurement": "% increment of number of spermatozoa vs before the treatment", "setting": "[7]; listed as sodium D-aspartate", "value": "19,3%"},
      {"measurement": "% increment of quick progressive spermatozoa vs before the treatment", "setting": "[7]; listed as sodium D-aspartate", "value": 37, "unit": "%"},
      {"measurement": "Quick progressive spermatozoa after ingestion (on 100 base)", "setting": "[7]; listed as sodium D-aspartate", "value": 55, "unit": "%"},
      {"measurement": "Testosterone % increment vs before the treatment", "setting": "[8]", "value": "+31.2%"},
      {"measurement": "Testosterone after ingestion", "setting": "[8]; average of 10", "value": 6.3, "unit": "ng/ml serum"},
      {"measurement": "Testosterone % increment vs before the treatment", "setting": "[8]; listed as sodium D-aspartate", "value": 31.2, "unit": "%"},
      {"measurement": "% increase of quick progressive spermatozoa vs before the treatment", "setting": "[9]", "value": "+28%"},
      {"measurement": "% increase of total spermatozoa vs before the treatment", "setting": "[9]", "value": "+27%"},
      {"measurement": "Immobile spermatozoa after ingestion (on base 100)", "setting": "[9]", "value": 30, "unit": "%*"},
      {"measurement": "Quick progressive spermatozoa after ingestion (on base 100)", "setting": "[9]", "value": 45, "unit": "%*"},
      {"measurement": "Slow spermatozoa after ingestion (on base 100)", "setting": "[9]", "value": 25, "unit": "%*"},
      {"measurement": "% increase of quick progressive spermatozoa vs before the treatment", "setting": "[9]; listed as sodium D-aspartate", "value": 28, "unit": "%"},
      {"measurement": "% increase of total spermatozoa vs before the treatment", "setting": "[9]; listed as sodium D-aspartate", "value": 27, "unit": "%"},
      {"measurement": "LH % increment vs before the treatment", "setting": "[10]; oral 3.12 g/day total", "value": "+25.6%"},
      {"measurement": "LH after ingestion", "setting": "[10]; oral 3.12 g/day total, average of 10", "value": 5.4, "unit": "mIU/ml serum"},
      {"measurement": "LH % increment vs before the treatment", "setting": "[10]; oral 3.12 g/day total, listed as sodium D-aspartate", "value": "25,6%"},
      {"measurement": "LH haematic value after ingestion", "setting": "[10]; oral 3.12 g/day", "value": 5.4, "unit": "mUI/ml"}
    ]}
  ]
}
